Test system: patients diagnosed with active definite MD (Ménière's vertigo attacks)
Assay: Retrospective and prospective review of active definite Meniere's disease patients treated with lamotrigine (vertigo attacks, DHI, side effects)
Assay type: in vivo, human patients
Procedure: Population. A retrospective and prospective review was performed on patients who were older than 18 years old, diagnosed with active definite MD at the Dent Dizziness, Balance and Tinnitus Center and treated with lamotrigine. Definite MD is defined as two or more episodes of vertigo that last for ≥20 minutes with documented hearing loss on at least one occasion, tinnitus and/or aural fullness, and other causes excluded. Active MD status requires patients to experience at least three vertigo attacks during the three months prior to treatment.
Clinical data. Data collected included demographic information, history of MD, prior medical treatment, clinical diagnosis, clinical presentation, stage of the disease, and frequency of Ménière's vertigo attacks prior to and after treatment. The staging of MD was based on the four-tone average of the pure-tone thresholds at 0.5, 1, 2 and 3 kHz of the worst audiogram during the six months before treatment. The questionnaires used were the Dizziness Handicap Inventory (DHI) and the Center's Dizziness Questionnaire. Current or past history of anxiety/depression, migraine problems, and use of anti-anxiety medication were also analyzed.
Outcome variable. The primary outcome measure was the reduction of Ménière's vertigo attacks at both three months after lamotrigine initiation (primarily the titration period) and three months after treatment at maintenance dosage. Secondary outcome measures included DHI scores and patient reports of clinical improvement. Data were confirmed by review of physicians' notes, vestibular and audiogram testing results, and supporting data. Means and standard deviations (SDs) were calculated for all continuous variables and proportions for all categorical variables. The primary research questions were whether or not lamotrigine led to a reduction of Ménière's vertigo attacks and whether or not lamotrigine led to improvement in quality of life for MD patients.
Statistical analysis. The overall difference in Meniere's vertigo attacks among 3 months pre-treatment, 3 months of titration, and 3 months of maintenance treatment was evaluated by Friedman's test, which is a nonparametric test for treatment differences in a randomized complete block design. The Wilcoxon signed rank sum test, which is the nonparametric version of a paired sample t-test, was used for the pairwise comparisons of Meniere's vertigo attacks from the three different time periods as well as DHI before and after treatment. Fisher's exact test was used to evaluate whether treatment effectiveness was affected by migraine or anxiety comorbidities. For all of these statistical tests, the tests were two-sided, and the level of significance was set to 0.05. Differences were considered significant if the p-value was less than 0.05.
Lamotrigine titration. All 45 patients began a titration of lamotrigine of 25 mg BID for two weeks to 50 mg BID for two weeks. Final maintenance dosages varied between 25 mg BID and 200 mg BID due to individual patient tolerance and response; 29 patients were on either 100 mg BID or 150 mg BID maintenance dosages (64%). There was one patient who was lost to follow-up. There were four patients who discontinued lamotrigine due to side effects: one experienced stomachaches and diarrhea, one complained of hallucinations, and two developed rashes.

[1] = mean (SD), three months prior to treatment: 12.7 (SD 11.6)
[2] = number of patients, value in brackets

Nc1nnc(-c2cccc(Cl)c2Cl)c(N)n1 [Lamotrigine, 6-(2,3-Dichlorophenyl)-1,2,4-triazine-3,5-diamine]
vertigo attack reduction and remission: influence of migraine comorbidity (Fisher's exact test, p=0.414): not affected
vertigo attack reduction and remission: influence of anxiety/depression comorbidity (Fisher's exact test, p=1.000): not affected
patients who reported improvement and had anxiety/depression disorder (among the 38 improved patients): 28 patients
patients who reported improvement and had migraine (among the 38 improved patients): 20 patients
mean post-treatment DHI score (mean (SD), prior treatment DHI 47.6 (SD 19.6)): 28.6 (SD 20.9)
mean number of vertigo attacks after three months of maintenance dosage [1]: 1.9 (SD 4.6)
mean number of vertigo attacks three months after initiation (primarily the titration period) [1]: 4.5 (SD 6.2)
Side effect, MD with migraine (number of patients): 1
Side effect, MD without migraine (number of patients): 3
Side effect, Total (number of patients): 4
Vertigo attack free, MD with migraine (number of patients): 11
Vertigo attack free, MD without migraine (number of patients): 10
Vertigo attack free, Total (number of patients): 21
Vertigo reduced, MD with migraine (number of patients): 9
Vertigo reduced, MD without migraine (number of patients): 8
Vertigo reduced, Total (number of patients): 17
Vertigo unchanged, MD with migraine (number of patients): 1 (1)
Vertigo unchanged, MD without migraine (number of patients): 1 (1)
Vertigo unchanged, Total (number of patients): 2
Side effect, MD with anxiety [2]: 3
Side effect, MD without anxiety [2]: 1
Vertigo attack free, MD with anxiety [2]: 15
Vertigo attack free, MD without anxiety [2]: 6
Vertigo reduced, MD with anxiety [2]: 13
Vertigo reduced, MD without anxiety [2]: 4
Vertigo unchanged, MD with anxiety [2]: 1 (1)
Vertigo unchanged, MD without anxiety [2]: 1 (1)
patients with complete resolution of Ménière's vertigo attacks during the three month maintenance period (of 38 improved patients): 21 patients
patients who discontinued lamotrigine due to side effects (of 45 patients): four
patients who discontinued with hallucinations (of 45 patients): one
patients who discontinued with rashes (of 45 patients): two
patients who discontinued with stomachaches and diarrhea (of 45 patients): one
proportion of patients who reported an improvement in Ménière's vertigo attacks (out of all 45 study patients): 84%
patients who reported an improvement in Ménière's vertigo attacks with lamotrigine treatment (out of all 45 study patients, maintenance 25-200 mg BID): 38 patients
post-DHI score less than pre-DHI score, on average (p=0.001): 19 points
vertigo attacks during 3 months of maintenance relative to 3 months of titration (p=0.04): significantly fewer
vertigo attacks during the two treatment periods compared to the 3 months prior to treatment (titration and maintenance periods, p<0.001, p<0.001, Wilcoxon signed rank): significantly fewer
